Test results: article PMC3904487, “The effect of piperine on midazolam plasma concentration in healthy volunteers, a research on the CYP3A-involving metabolism” (DARU Journal of Pharmaceutical Sciences, 2014)
Values joined by “and” are separate entries in the source; they are usually repeats but may differ in a detail not shown here. Equal values may be shown once.

Legend:
[1] = Clinical features (sedation, amnesia, side effects) after oral midazolam in placebo and piperine pretreatment groups; assay type: in vivo, human; conditions: midazolam 10 mg oral; for End of drug effect / duration of sedation / Onset of drug effect (sedative effect of midazolam): n=20, mean (±SD)
[2] = Midazolam plasma concentration (HPLC) and one-compartment PK after placebo or piperine pretreatment in healthy volunteers
Description: This was a cross-over controlled study on two groups (n=10) of healthy volunteers. A one-month period was considered as wash out time between two trials. […] Inclusion criteria: being healthy; age ranging 18 to 35; normal diet; not receiving microsomal enzyme inhibitor or inducer agents for at least 7 days before the study; not using black pepper for at least 7 days before the study. Exclusion criteria: age being below 18 and above 35; smocking; pregnancy; metabolic disorders; high pepper diet, receiving enzyme inhibitors or inducers.
Healthy volunteers regardless of gender were randomly divided into two control and piperine receiving groups (n=20 per group). The subject received placebo or piperine (1 capsule 15 mg of piperine daily for 3 days before midazolam) and midazolam (10 mg as an oral single dose) on fourth day of the study. […] Blood samples (maximum 10 ml) were taken at 0.5, 2.5 and 5 hour after midazolam administration. After a month as a wash out period, the treatment program was exchanged between placebo and piperine groups and all steps were done as same as the previous.
Blood samples were transferred into labeled tubes containing Ca-EDTA and shake gently to mix Ca-EDTA with blood for preventing of coagulation.The samples were centrifuged at 3500 ×g for 15 min and supernatant plasma layer transferred into a blank tube. Until the assay of midazolam or diazepam concentration, the plasma samples were kept at −20°C.
For measurement of the drugs concentration, plasma samples were removed from the freezer condition and left in the laboratory to convert from frozen into a liquid sample. Then 0.5 ml of thawed plasma sample was transferred into a capped falcon tube. In the next step, 100 micl of 1 M NaOH and 100 micl isoamyl alcohol were added. After a gently shaking, 4.5 ml of n-hexan was added and shake for 1 minute. The final solutions were centrifuged at 300 ×g for 5 min. After this step, 4.2 ml of supernatant was drawn and transferred into a plastic tube and 100 miclof 0.05 M HCl was added to the solution and centrifuged similar as the previous. Then the supernatant (organic layer) was discarded and the remaining was directly injected into the HPLC.
The separation was carried out at ambient temperature using a single-column isocratic reverse-phase method. The mobile phase consisted of 75% methanol and 25% water. Flow rate was set at 0.8 ml/min. The extracts were detected by UV detector at 242 nm wavelength. Twenty micl of the aqueous layer of final extract was injected into the HPLC using a Hamilton’s syringe. The injection was repeated 3 times for each sample. Peaks area and height were considered for midazolam and diazepam detection and used for calculation of the drugs concentration in the final plasma extract.
The second; pharmacokinetic (PK) parameters such as absorption rate constant (Ka), clearance, half-life and volume of distribution of midazolam in the placebo and piperine groups were calculated based on assumed one-compartment kinetics using P-Pharm software.
Based on non-parametric distribution, data of three concentrations by time were analyzed using Friedman test. Wilcoxon U-test was used for the results of clearance, volume of distribution and half-life of midazolam in piperine group compared to placebo. The difference of the PK parameters between two groups was considered statistically significant at p<0.05.

[3] = placebo pretreatment, midazolam 10 mg oral, n=20
[4] = piperine 15 mg x 3 days pretreatment
[5] = piperine 15 mg x 3 days pretreatment, of n=20

Cc1ncc2n1-c1ccc(Cl)cc1C(c1ccccc1F)=NC2 [midazolam]
Subjects with severe sedation and dizziness ([1]; placebo pretreatment): 30%
End of drug effect / duration of sedation ([1]; placebo pretreatment): 102±43 min and 102 (±43) min
Onset of drug effect (sedative effect of midazolam) ([1]; placebo pretreatment): 11.25 (±4.5) min
Amnesia (frequency, subjects) ([1]; placebo pretreatment, of n=20): 4
AUC(0-t) ([2]; both, human, plasma, po, 10 mg): 411 ± 235 ng·h/mL
half-life ([2]; both, human, plasma, po, 10 mg): 1.71 h
Time of maximum plasma midazolam concentration ([2]; placebo group, after midazolam 10 mg oral, population concentration-time curve): 1.5 h
Kel, elimination rate constant of midazolam (Max) [2, 3]: 0.42
Kel, elimination rate constant of midazolam (Min) [2, 3]: 0.390
Kel, elimination rate constant of midazolam (mean) [2, 3]: 0.41
T1/2, half-life of midazolam (Max) [2, 3]: 1.78 h
T1/2, half-life of midazolam (Min) [2, 3]: 97.8 min
Volume (of distribution) of midazolam (Max) [2, 3]: 93.03
Volume (of distribution) of midazolam (Min) [2, 3]: 87.63
Volume (of distribution) of midazolam (mean) [2, 3]: 91.44

O=C(/C=C/C=C/c1ccc2c(c1)OCO2)N1CCCCC1 [Piperine, piperine]
Subjects with severe sedation and dizziness [1, 4]: 55%
End of drug effect / duration of sedation [1, 4]: 188 (±59) min
Onset of drug effect (sedative effect of midazolam) [1, 4]: 11.75 (±4.9) min
End of drug effect / duration of sedation ([1]; piperine 15 mg x 3 days pretreatment, listed as piperine): 188 ± 59 min
Amnesia (frequency, subjects) [1, 5]: 7
Sedation (frequency, subjects) [1, 5]: 20
Amnesia (frequency, subjects) ([1]; piperine 15 mg x 3 days pretreatment, of n=20, listed as piperine): Seven
Subjects with hiccup when receiving midazolam ([1]; piperine 15 mg x 3 days pretreatment, disappeared during first hours): One
